Eight compounds from PubChem BioAssay (NCI) can be followed below.

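48-hour exposure; five concentrations; linearly interpolated endpoints. GI50 = concentration required for 50% inhibition of growth. TGI: concentration producing complete growth inhibition.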

In the first test the test system is NCI-H226 lung. Kind of test: inhibition of tumour cell growth, NCI panel, 48 h.
Regarding `OC(c1cccc(C(F)(F)F)c1)c1cnccc1NC1CCCCCC1` (stereo not given), the GI50 was 2.76 µM and the TGI was 16.6 µM.

Turning to `N#Cc1c(O)c2c(c(O)c1C#N)C(=O)c1ccccc1C2=O`, the GI50 is 2.83 µM and the TGI is 25.3 µM.

Consider `CN=C1NC(=O)/C(=C/c2ccc3ncccc3c2)S1`, for which the GI50 was 8.16 µM and the TGI is greater than 25 µM.

Compound `COC(=O)c1c(OC)cccc1C(=O)O` displayed a TGI greater than 100 µM.

`Cc1c(C(=O)/C=C/c2cccc3ccccc23)[n+](=O)c2ccccc2n1[O-]`: the TGI was 27.9 µM.

For the compound `CC(=O)/C=C/c1cccc(N=S)c1`, the TGI was greater than 83.3 µM.

For the compound `O=C1/C(=C/c2ccccc2)CN(C(=O)Oc2ccc(Cl)cc2)C/C1=C\c1ccccc1`, the TGI is 16.6 µM.

Take `CC1=C[C@@H]2Cc3occc3C(C)(C)[C@@H]2CC1`: the TGI came out at 32.8 µM.

The subject of another test is SF-539 CNS. Kind of test: inhibition of tumour cell growth, NCI panel, 48 h.
Regarding `OC(c1cccc(C(F)(F)F)c1)c1cnccc1NC1CCCCCC1` (stereo not given), the GI50 was 1.71 µM and the TGI came to 3.15 µM.

As to `N#Cc1c(O)c2c(c(O)c1C#N)C(=O)c1ccccc1C2=O`, the GI50 is 2.6 µM and the TGI worked out at 5.53 µM.

For the compound `CN=C1NC(=O)/C(=C/c2ccc3ncccc3c2)S1`, the GI50 was 5.88 µM and the TGI was greater than 25 µM.

In the case of `COC(=O)c1c(OC)cccc1C(=O)O`, the TGI is greater than 100 µM.

`Cc1c(C(=O)/C=C/c2cccc3ccccc23)[n+](=O)c2ccccc2n1[O-]` yielded a TGI of 23.8 µM.

`CC(=O)/C=C/c1cccc(N=S)c1` gave a TGI of 20.8 µM.

Regarding `O=C1/C(=C/c2ccccc2)CN(C(=O)Oc2ccc(Cl)cc2)C/C1=C\c1ccccc1`, the TGI is 5.92 µM.

`CC1=C[C@@H]2Cc3occc3C(C)(C)[C@@H]2CC1` yielded a TGI of 58.7 µM.

A further test deals with SF-268 CNS. Description: inhibition of tumour cell growth, NCI panel, 48 h.
As for `OC(c1cccc(C(F)(F)F)c1)c1cnccc1NC1CCCCCC1` (stereo not given), the GI50 was 3.29 µM and the TGI stood at 13.8 µM.

Turning to `N#Cc1c(O)c2c(c(O)c1C#N)C(=O)c1ccccc1C2=O`, the GI50 is 2.8 µM and the TGI worked out at 16 µM.

In the case of `CN=C1NC(=O)/C(=C/c2ccc3ncccc3c2)S1`, the GI50 is 10.7 µM and the TGI was greater than 25 µM.

`COC(=O)c1c(OC)cccc1C(=O)O` gave a TGI greater than 100 µM.

In turn, `Cc1c(C(=O)/C=C/c2cccc3ccccc23)[n+](=O)c2ccccc2n1[O-]` showed a TGI of 29.3 µM.

Take `CC(=O)/C=C/c1cccc(N=S)c1`: the TGI was greater than 69.6 µM.

`O=C1/C(=C/c2ccccc2)CN(C(=O)Oc2ccc(Cl)cc2)C/C1=C\c1ccccc1` registered a TGI of 8.77 µM.

As for `CC1=C[C@@H]2Cc3occc3C(C)(C)[C@@H]2CC1`, the TGI was determined as 38.3 µM.

The next test has as its system MALME-3M melanoma. Description: inhibition of tumour cell growth, NCI panel, 48 h.
On to `OC(c1cccc(C(F)(F)F)c1)c1cnccc1NC1CCCCCC1` (stereo not given), for which the GI50 is 1.51 µM and the TGI worked out at 2.94 µM.

As to `N#Cc1c(O)c2c(c(O)c1C#N)C(=O)c1ccccc1C2=O`, the GI50 was 0.475 µM and the TGI was 1.7 µM.

`CN=C1NC(=O)/C(=C/c2ccc3ncccc3c2)S1`: the GI50 was 16 µM and the TGI was greater than 25 µM.

`COC(=O)c1c(OC)cccc1C(=O)O` showed a TGI greater than 100 µM.

`Cc1c(C(=O)/C=C/c2cccc3ccccc23)[n+](=O)c2ccccc2n1[O-]` showed a TGI of 34.9 µM.

For `CC(=O)/C=C/c1cccc(N=S)c1`, the TGI is greater than 100 µM.

Turning to `O=C1/C(=C/c2ccccc2)CN(C(=O)Oc2ccc(Cl)cc2)C/C1=C\c1ccccc1`, the TGI was found to be 26.7 µM.

With `CC1=C[C@@H]2Cc3occc3C(C)(C)[C@@H]2CC1`, the TGI is 44.2 µM.

Another test relates to HCT-116 colon. Description: inhibition of tumour cell growth, NCI panel, 48 h.
Turning to `OC(c1cccc(C(F)(F)F)c1)c1cnccc1NC1CCCCCC1` (stereo not given), the GI50 is 1.65 µM and the TGI worked out at 3.18 µM.

`N#Cc1c(O)c2c(c(O)c1C#N)C(=O)c1ccccc1C2=O`: the GI50 is 1.3 µM and the TGI was found to be 2.94 µM.

On to `CN=C1NC(=O)/C(=C/c2ccc3ncccc3c2)S1`, for which the GI50 is 5.29 µM and the TGI was greater than 25 µM.

The compound `COC(=O)c1c(OC)cccc1C(=O)O` displayed a TGI greater than 100 µM.

In turn, `Cc1c(C(=O)/C=C/c2cccc3ccccc23)[n+](=O)c2ccccc2n1[O-]` registered a TGI of 18.8 µM.

In the case of `CC(=O)/C=C/c1cccc(N=S)c1`, the TGI was 2.72 µM.

As to `O=C1/C(=C/c2ccccc2)CN(C(=O)Oc2ccc(Cl)cc2)C/C1=C\c1ccccc1`, the TGI was 0.593 µM.

`CC1=C[C@@H]2Cc3occc3C(C)(C)[C@@H]2CC1` displayed a TGI of 33.7 µM.

The next test has as its system OVCAR-4 ovarian. Description: inhibition of tumour cell growth, NCI panel, 48 h.
For the compound `OC(c1cccc(C(F)(F)F)c1)c1cnccc1NC1CCCCCC1` (stereo not given), the GI50 was 1.83 µM and the TGI was 6.33 µM.

With `N#Cc1c(O)c2c(c(O)c1C#N)C(=O)c1ccccc1C2=O`, the GI50 is 1.43 µM and the TGI came out at 3.79 µM.

In the case of `CN=C1NC(=O)/C(=C/c2ccc3ncccc3c2)S1`, the GI50 is 10.2 µM and the TGI is greater than 25 µM.

Take `COC(=O)c1c(OC)cccc1C(=O)O`: the TGI is greater than 100 µM.

In turn, `Cc1c(C(=O)/C=C/c2cccc3ccccc23)[n+](=O)c2ccccc2n1[O-]` gave a TGI of 15.7 µM.

Regarding `CC(=O)/C=C/c1cccc(N=S)c1`, the TGI is greater than 100 µM.

In turn, `O=C1/C(=C/c2ccccc2)CN(C(=O)Oc2ccc(Cl)cc2)C/C1=C\c1ccccc1` had a TGI of 3.52 µM.

In turn, `CC1=C[C@@H]2Cc3occc3C(C)(C)[C@@H]2CC1` registered a TGI of 84.4 µM.

The test system of another test is KM12 colon. Kind of test: inhibition of tumour cell growth, NCI panel, 48 h.
On to `OC(c1cccc(C(F)(F)F)c1)c1cnccc1NC1CCCCCC1` (stereo not given), for which the GI50 was 1.93 µM and the TGI turned out to be 3.75 µM.

As for `N#Cc1c(O)c2c(c(O)c1C#N)C(=O)c1ccccc1C2=O`, the GI50 was 2.59 µM and the TGI was 12.1 µM.

For the compound `CN=C1NC(=O)/C(=C/c2ccc3ncccc3c2)S1`, the GI50 is 19.9 µM and the TGI is greater than 25 µM.

`COC(=O)c1c(OC)cccc1C(=O)O` registered a TGI greater than 100 µM.

Compound `Cc1c(C(=O)/C=C/c2cccc3ccccc23)[n+](=O)c2ccccc2n1[O-]` gave a TGI of 27.1 µM.

For the compound `CC(=O)/C=C/c1cccc(N=S)c1`, the TGI was found to be 20.2 µM.

`O=C1/C(=C/c2ccccc2)CN(C(=O)Oc2ccc(Cl)cc2)C/C1=C\c1ccccc1` yielded a TGI of 3.28 µM.

`CC1=C[C@@H]2Cc3occc3C(C)(C)[C@@H]2CC1` registered a TGI of 33.4 µM.

In another test the test system is UACC-62 melanoma. Kind of test: inhibition of tumour cell growth, NCI panel, 48 h.
For the compound `OC(c1cccc(C(F)(F)F)c1)c1cnccc1NC1CCCCCC1` (stereo not given), the GI50 is 1.5 µM and the TGI was 3.06 µM.

Regarding `N#Cc1c(O)c2c(c(O)c1C#N)C(=O)c1ccccc1C2=O`, the GI50 is 1.05 µM and the TGI is 2.85 µM.

As to `CN=C1NC(=O)/C(=C/c2ccc3ncccc3c2)S1`, the GI50 is 8.31 µM and the TGI is greater than 25 µM.

Take `COC(=O)c1c(OC)cccc1C(=O)O`: the TGI was greater than 100 µM.

Compound `Cc1c(C(=O)/C=C/c2cccc3ccccc23)[n+](=O)c2ccccc2n1[O-]` came in with a TGI of 23.9 µM.

The compound `CC(=O)/C=C/c1cccc(N=S)c1` gave a TGI greater than 57.2 µM.

`O=C1/C(=C/c2ccccc2)CN(C(=O)Oc2ccc(Cl)cc2)C/C1=C\c1ccccc1` gave a TGI of 5.42 µM.

For `CC1=C[C@@H]2Cc3occc3C(C)(C)[C@@H]2CC1`, the TGI was greater than 10 µM.

In a further test the test system is A498 renal. Description: inhibition of tumour cell growth, NCI panel, 48 h.
Consider `OC(c1cccc(C(F)(F)F)c1)c1cnccc1NC1CCCCCC1` (stereo not given), for which the GI50 was 3.68 µM and the TGI stood at 15.9 µM.

As to `N#Cc1c(O)c2c(c(O)c1C#N)C(=O)c1ccccc1C2=O`, the GI50 was 1.39 µM and the TGI amounted to 16.4 µM.

Take `CN=C1NC(=O)/C(=C/c2ccc3ncccc3c2)S1`: the GI50 was 3.86 µM and the TGI was determined as 13.7 µM.

Compound `COC(=O)c1c(OC)cccc1C(=O)O` had a TGI greater than 100 µM.

The compound `Cc1c(C(=O)/C=C/c2cccc3ccccc23)[n+](=O)c2ccccc2n1[O-]` gave a TGI of 30.8 µM.

Take `CC(=O)/C=C/c1cccc(N=S)c1`: the TGI worked out at 78.7 µM.

Consider `O=C1/C(=C/c2ccccc2)CN(C(=O)Oc2ccc(Cl)cc2)C/C1=C\c1ccccc1`, for which the TGI was found to be 7.81 µM.

Take `CC1=C[C@@H]2Cc3occc3C(C)(C)[C@@H]2CC1`: the TGI is 49.6 µM.

The subject of another test is UACC-257 melanoma. Kind of test: inhibition of tumour cell growth, NCI panel, 48 h.
Consider `OC(c1cccc(C(F)(F)F)c1)c1cnccc1NC1CCCCCC1` (stereo not given), for which the GI50 was 2.36 µM and the TGI is 4.66 µM.

For the compound `N#Cc1c(O)c2c(c(O)c1C#N)C(=O)c1ccccc1C2=O`, the GI50 is 1.57 µM and the TGI is 4.82 µM.

With `CN=C1NC(=O)/C(=C/c2ccc3ncccc3c2)S1`, the GI50 is 7.18 µM and the TGI was greater than 25 µM.

For `COC(=O)c1c(OC)cccc1C(=O)O`, the TGI was greater than 100 µM.

As to `Cc1c(C(=O)/C=C/c2cccc3ccccc23)[n+](=O)c2ccccc2n1[O-]`, the TGI is 26.7 µM.

With `CC(=O)/C=C/c1cccc(N=S)c1`, the TGI was greater than 67.4 µM.

With `O=C1/C(=C/c2ccccc2)CN(C(=O)Oc2ccc(Cl)cc2)C/C1=C\c1ccccc1`, the TGI came to 4.33 µM.

`CC1=C[C@@H]2Cc3occc3C(C)(C)[C@@H]2CC1` gave a TGI of 44.7 µM.
